Values of other authors as cited in patent US20240217930A1 (priority 2021, published 2024).
pKi: −log10 of the molar value.

Tests used:
[1] = tested on: ten further coronavirus strains; details: read-out: Ki against ten further coronavirus strains; cited from earlier work
live virus = details: cited from earlier work
[2] = trials performed in cats; cited from earlier work

Molecule | pKi [1] | activity in cell-based live virus assays (live virus) | side effects in cats [2]
PF-00835231 | 8.40 to 10.52 | ~1 µM | –
CC(C)C[C@H](NC(=O)OCc1ccccc1)C(=O)N[C@@H](C[C@@H]1CCNC1=O)C(O)S(=O)(=O)[O-].[Na+] (stereo partly drawn) [GC376] | – | – | has shown side effects
